This series in a line: Glass transition temperature (Tg) by modulated DSC. The series is classed as physicochemical. How it is done: Below Tg, an amorphous material is said to be in a “glassy” state in which molecular mobility is severely restricted. […] Glass transition temperatures Tg were determined for amorphous enzalutamide, and for spray-dried dispersions (SDDs) of enzalutamide with HPMCAS-M or PVP-VA64, at <5% and 75% relative humidity (RH) Tgs were determined by modulated differential scanning calorimetry (mDSC), utilizing the following protocol. Samples (about 5 mg) were equilibrated at the desired RH overnight in an environmental chamber at ambient temperature. The samples were then loaded into pans and sealed inside the environmental chamber. The samples were analyzed on a Q1000 mDSC (TA Instruments, New Castle, Delaware). Samples were typically scanned over the temperature range of -40° C. to 180° C., at a scan rate of 2.5° C./min, and a modulation rate of ±1.5° C./min. […] The Tg was calculated based on half height.
HME dispersions were produced using dry-powder blends of enzalutamide and HPMCAS-M or PVP VA at three different drug loadings: 25%A, 40%A, and 60%A. Using a volumetric powder feeder, the blends were fed at a controlled rate to a 7.5 \-mm MP&R™ Model ME7.5 Twin-Screw Extruder (MP&R, Hackensack, NJ). […] Table 11.1 presents the extrusion temperature, the crystallinity of the dispersion (amorphous is desired), and the glass transition temperature (Tg) measured by DSC.

`CNC(=O)c1ccc(N2C(=S)N(c3ccc(C#N)c(C(F)(F)F)c3)C(=O)C2(C)C)cc1F` [Amorphous enzalutamide, 4-{3-[4-cyano-3-(trifluoromethyl)phenyl]-5,5-dimethyl-4-oxo-2-sulfanylideneimidazolidin-1-yl}-2-fluoro-N-methylbenzamide]: the Tg reads like this: (75% RH) 64.0 °C; (<5% RH) 88.5 °C.

Values taken from US20230122911A1, “FORMULATIONS OF ENZALUTAMIDE” (Astellas Pharma Inc., priority 2012, published 2023).
